{"source": "patent US4093714A", "about": "“9β-D-Arabinofuranosylpurine nucleotides and method of use” (ICN Pharmaceuticals, Inc., priority 1974, dated 1978)", "key": {"[1]": {"test_system": "Type 1 Herpes Simplex Virus", "type": "cell-based", "details": "cell culture, three days, VR >0.5 definite, <0.5 slight antiviral activity"}, "[2]": {"test_system": "Type 2 Herpes Simplex Virus", "type": "cell-based", "details": "cell culture, three days, VR >0.5 definite, <0.5 slight antiviral activity"}, "[3]": {"test_system": "Vaccinia Virus", "type": "cell-based", "details": "cell culture, three days, VR >0.5 definite, <0.5 slight antiviral activity"}, "[4]": {"test_system": "equine abortion virus", "details": "for Infected, Treated Surv/Total: 21 days observation; for Toxicity Control Surv/Total: twice daily for four days; for Survival Increase p: Fisher's exact test; for Infected, Treated Mean Survival Time: animals dying on or before day 21; for Mean Surv. Increase p: t test"}, "[5]": {"details": "cited from earlier work"}, "[6]": {"details": "clinical testing as antiviral agent; cited from earlier work"}, "[7]": {"test_system": "spectrum of virus infections", "details": "cited from earlier work"}, "[8]": {"test_system": "Herpes simplex, strain 123", "test": "Anti-herpes encephalitis activity in mice, intraperitoneal treatment", "details": "for Percent Survivor Number Increase: twice daily for 8 days from 4 hr post virus, 21 days; for Survivor Increase P: probability value (chi square analysis)"}, "[9]": {"details": "eventually to uric acid; cited from earlier work"}}, "note": "Read-outs that look alike come from different tables or passages of the source.", "data": [{"smiles": "O=c1c2ncn([C@@H]3O[C@H](COP(=O)(O)O)[C@@H](O)[C@@H]3O)c2ncn1O", "note": "[9-β-D-Arabinofuranosyl-N^1-hydroxyhypoxanthine-5'-phosphate]", "values": [{"measurement": "virus rating (VR)", "setting": "[1]", "result": "0.2-0.7"}, {"measurement": "virus rating (VR)", "setting": "[2]", "result": "0.0-0.6"}, {"measurement": "virus rating (VR)", "setting": "[3]", "result": "0.1-0.4"}]}, {"smiles": "Nc1ncnc2c1ncn2[C@@H]1O[C@H](CO)[C@@H](O)[C@@H]1O", "note": "[9-β-D-Arabinofuranosyladenine, 9-β-D-arabinofuranosyladenine]", "values": [{"measurement": "Infected, Treated Surv/Total", "setting": "[4]; Expt. 1, 125 mg/kg/day i.p.", "result": "8/9"}, {"measurement": "Toxicity Control Surv/Total", "setting": "[4]; Expt. 1, 125 mg/kg/day i.p.", "result": "2/2"}, {"measurement": "Survival Increase p", "setting": "[4]; Expt. 1, 125 mg/kg/day i.p.", "result": "< 0.001"}, {"measurement": "Infected, Treated Mean Survival Time", "setting": "[4]; Expt. 1, 125 mg/kg/day i.p.", "result": 13, "unit": "days"}, {"measurement": "Infected, Treated Surv/Total", "setting": "[4]; Expt. 1, 250 mg/kg/day i.p.", "result": 0.8}, {"measurement": "Toxicity Control Surv/Total", "setting": "[4]; Expt. 1, 250 mg/kg/day i.p.", "result": "2/3"}, {"measurement": "Infected, Treated Mean Survival Time", "setting": "[4]; Expt. 1, 250 mg/kg/day i.p.", "result": 9.2, "unit": "days"}, {"measurement": "Mean Surv. Increase p", "setting": "[4]; Expt. 1, 250 mg/kg/day i.p.", "result": "< 0.001"}, {"measurement": "Infected, Treated Surv/Total", "setting": "[4]; Expt. 2, 62.5 mg/kg/day i.p.", "result": "10/10"}, {"measurement": "Survival Increase p", "setting": "[4]; Expt. 2, 62.5 mg/kg/day i.p.", "result": "< 0.001"}, {"measurement": "Infected, Treated Mean Survival Time", "setting": "[4]; Expt. 2, 62.5 mg/kg/day i.p.", "result": "> 21", "unit": "days"}, {"measurement": "Mean Surv. Increase p", "setting": "[4]; Expt. 2, 62.5 mg/kg/day i.p.", "result": "< 0.001"}, {"measurement": "Infected, Treated Surv/Total", "setting": "[4]; Expt. 2, 250 mg/kg/day i.p.", "result": "3/10"}, {"measurement": "Toxicity Control Surv/Total", "setting": "[4]; Expt. 2, 250 mg/kg/day i.p.", "result": "2/3"}, {"measurement": "Survival Increase p", "setting": "[4]; Expt. 2, 250 mg/kg/day i.p.", "result": 0.09}, {"measurement": "Infected, Treated Mean Survival Time", "setting": "[4]; Expt. 2, 250 mg/kg/day i.p.", "result": 12, "unit": "days"}, {"measurement": "Mean Surv. Increase p", "setting": "[4]; Expt. 2, 250 mg/kg/day i.p.", "result": "< 0.001"}, {"measurement": "solubility (in words)", "setting": "[5]", "result": "low solubility"}, {"measurement": "human toxic symptoms", "setting": "[6]", "result": "mild nausea, transient leukopenia and central nervous system involvement which causes illusions and hallucinations"}, {"measurement": "reported antiviral effectiveness", "setting": "[7]", "result": "effective agent against a spectrum of virus infections"}, {"measurement": "Percent Survivor Number Increase", "setting": "[8]; 62.5 mg/kg/day i.p.", "result": 0, "unit": "%"}, {"measurement": "Survivor Increase P", "setting": "[8]; 62.5 mg/kg/day i.p.", "result": "> 0.03"}, {"measurement": "Percent Survivor Number Increase", "setting": "[8]; 125 mg/kg/day i.p.", "result": 30, "unit": "%"}, {"measurement": "Survivor Increase P", "setting": "[8]; 125 mg/kg/day i.p.", "result": "< 0.05"}, {"measurement": "Percent Survivor Number Increase", "setting": "[8]; 250 mg/kg/day i.p.", "result": 40, "unit": "%"}, {"measurement": "Survivors/Total (Toxicity Controls)", "setting": "[8]; 250 mg/kg/day i.p., twice daily for 8 days, 21 days observation", "result": "5/5"}, {"measurement": "Survivor Increase P", "setting": "[8]; 250 mg/kg/day i.p.", "result": "< 0.05"}, {"measurement": "effectiveness of ara-A compared with ara-IMP", "setting": "[8]; i.p., Table II", "result": "less effective"}]}, {"smiles": "O=c1[nH]cnc2c1ncn2[C@@H]1O[C@@H]2COP(=O)(O)O[C@H]2[C@@H]1O", "note": "[9-β-D-Arabinofuranosylhypoxanthine-3' ,5'-cyclic phosphate]", "values": [{"measurement": "virus rating (VR)", "setting": "[1]", "result": "0.7-1.1"}, {"measurement": "virus rating (VR)", "setting": "[3]", "result": 0.7}]}, {"smiles": "O=c1[nH]cnc2c1ncn2[C@@H]1O[C@H](CO)[C@@H](OP(=O)(O)O)[C@@H]1O", "note": "[9-β-D-Arabinofuranosylhypoxanthine-3'-phosphate]", "values": [{"measurement": "virus rating (VR)", "setting": "[1]", "result": 1.0}]}, {"smiles": "COP(=O)(O)OC[C@H]1O[C@@H](n2cnc3c(=O)[nH]cnc32)[C@@H](O)[C@@H]1O", "note": "[9-β-D-Arabinofuranosylhypoxanthine-5'-O-methylphosphate]", "values": [{"measurement": "virus rating (VR)", "setting": "[1]", "result": "0.4-0.7"}, {"measurement": "virus rating (VR)", "setting": "[2]", "result": 0.0}, {"measurement": "virus rating (VR)", "setting": "[3]", "result": 0.4}]}, {"smiles": "Nc1ncnc2c1ncn2[C@@H]1O[C@H](COP(=O)(O)O)[C@@H](O)[C@@H]1O", "note": "[9-β-D-arabinofuranosyladenine-5'-phosphate]", "values": [{"measurement": "virus rating (VR)", "setting": "[1]", "result": 1.3}, {"measurement": "metabolic degradation", "setting": "[9]", "result": "rapidly degraded in the metabolic system (eventually to uric acid)"}]}, {"smiles": "O=c1[nH]c(=O)n([C@H]2C[C@H](O)[C@@H](CO)O2)cc1I", "note": "[IDU, 5'-iodo-2'-deoxyuridine]", "values": [{"measurement": "maximum solubility", "setting": "[5]", "result": "about 0.1 weight percent"}, {"measurement": "solubility (in words)", "setting": "[5]", "result": "extremely low solubility"}]}]}
